Measurements reported in patent publication US12128028B2, “Heterocyclic sulfonamide derivatives and pharmaceutical uses thereof” (METRION BIOSCIENCES LIMITED, priority 2018, dated 2024).

Target: human Kv1.3 (Homo sapiens (Human), UniProt P22001)
Assay: Kv1.3 potency evaluation, automated patch clamp electrophysiology (QPatch HT) in CHO-Kv1.3 cells
Type: cell-based
Details: whole-cell QPatch HT, % inhibition of charge, step to +30 mV, four concentrations, N≥3 cells, read-out: hKv1.3 IC50
From the text: Biological Assays Kv1.3 Potency Evaluation Electrophysiology Recordings
A proprietary Chinese hamster ovary cell line stably expressing exogenous human a-subunits of Kv1.3 (CHO-Kv1.3) channel, validated biophysically and pharmacologically in house, was used to assess the ability of test compounds to block Kv1.3 currents using automated patch clamp electrophysiology. The QPatch HT system (Sophion Bioscience A/S, Denmark) was used with the conventional whole-cell configuration. This system is an automated, chip-based planar patch clamp device allowing for up to 48 parallel independent experiments in one experimental assay run. Cells are added to each well and drawn by suction onto a small aperture to obtain a Gigaohm seal between the cell membrane and treated silicon surface, and whole-cell recordings initiated after access is achieved by suction and/or voltage pulses. The QPatch HT uses static perfusion, whereby a small volume of recording solution or drug is added to a reservoir on the chip and the solution perfuses across the cell through quartz-lined microfluidic channels; this solution is removed by capillary action when the next sample application is made.
CHO-Kv1.3 cells were prepared for experiments by dissociation from T175 cell culture flasks using trypsin-EDTA (0.05%), cells were kept in serum free media in the cell hotel on board the QPatch HT. These cells were sampled, washed and re-suspended in extracellular recording solution by the QPatch HT immediately before application to the recording well site on the chip. Experiments were performed using the following solutions; extracellular solution contained (in mM); 150 NaCl, 10 KCl, 1 MgCl2, 3 CaCl2), 10 Glucose and 10 HEPES (pH 7.4, NaOH) and intracellular solution contained (in mM); 20 KCl, 120 KF, 10 HEPES, 10 EGTA, 5 ATP (pH 7.2, KOH).
The potency (Inhibitory Concentration 50%, IC50) of synthesized compounds against Kv1.3 was determined from concentration-response relationships established by cumulatively applying four escalating concentrations of test compound to an individual cell and a minimum of N≥3 individual cells of data per compound were used to generate the IC50 value.
On achieving the whole-cell configuration; two additions of vehicle (0.1-0.3% DMSO v/v) were applied to each cell in two bolus additions with a two minute recording period between each addition (four minutes total recording time). Following the vehicle period, four concentrations of test sample were applied as two bolus additions per test concentration at two minute intervals, and the effects on current measured during the four minute recording period.
Currents were elicited using a single step voltage protocol. From a holding potential of −80 mV the cell is depolarised to +30 mV (500 ms) resulting in an outward current before finally repolarising the cell by returning to the holding potential. The command voltage was applied at a frequency of 0.067 Hz throughout the duration of the experiment. For each sweep of the voltage protocol membrane current and the passive properties of the individual cells were recorded by QPatch assay software (version 5.2). Cursors were placed to calculate the charge (integral of the current recorded during cursor interval) between 2-490 ms (0.4-99%) of the 500 ms step to +30 mV.
The % inhibition of charge for each test concentration application period was calculated as the reduction in mean charge at the end of each concentration test period relative to the charge value measured at the end of the control (i.e. vehicle) period. Sigmoidal concentration response curves (four parameter logistic curve) were fitted to the % inhibition rom which the IC50 was determined. Curve fits were constrained at 0 and 100%.

Sequence of human Kv1.3 (P22001 whole entry): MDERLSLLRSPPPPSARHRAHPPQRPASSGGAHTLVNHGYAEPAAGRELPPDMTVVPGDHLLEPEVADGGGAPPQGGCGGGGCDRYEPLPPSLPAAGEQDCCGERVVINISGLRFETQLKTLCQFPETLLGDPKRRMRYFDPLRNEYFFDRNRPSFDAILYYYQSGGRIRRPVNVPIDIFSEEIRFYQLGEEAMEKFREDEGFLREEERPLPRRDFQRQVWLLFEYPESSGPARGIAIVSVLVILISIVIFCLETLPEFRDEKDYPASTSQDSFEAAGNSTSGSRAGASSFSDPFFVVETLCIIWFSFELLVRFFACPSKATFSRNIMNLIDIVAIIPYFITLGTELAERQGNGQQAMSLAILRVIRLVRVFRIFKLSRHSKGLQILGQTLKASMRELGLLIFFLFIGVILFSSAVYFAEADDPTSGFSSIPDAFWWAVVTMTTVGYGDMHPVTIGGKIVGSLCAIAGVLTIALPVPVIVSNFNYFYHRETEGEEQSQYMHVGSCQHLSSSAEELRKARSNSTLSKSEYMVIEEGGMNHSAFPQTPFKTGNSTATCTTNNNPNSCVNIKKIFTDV

Row | IC50 | SMILES
1 | 0.051 µM | CC1(C)N=C(C23CC(N(Cc4ccc(Cl)c(F)c4)S(=O)(=O)c4ccccc4)(C2)C3)N[C@H]1C(=O)NC1CCC1 (mixture of isomers) [Example 60]
2 | 0.051 µM | CC1(C)N=C(C23CC(N(Cc4ccc(Cl)c(F)c4)S(=O)(=O)c4ccccc4)(C2)C3)N[C@H]1C(=O)N1CC(F)(F)C(F)(F)C1 (mixture of isomers) [Example 61]
3 | 0.052 µM | CC1(C)N=C(C23CC(N(Cc4ccc(Cl)c(Cl)c4)S(=O)(=O)c4ccccc4)(C2)C3)N[C@H]1C(=O)NCCC(F)(F)F (mixture of isomers) [Example 62]
4 | 0.052 µM | CC1(C)N=C(C23CC(N(Cc4ccc(Cl)c(F)c4)S(=O)(=O)c4ccccc4)(C2)C3)N[C@H]1C(=O)NCC1CC(F)(F)C1 (mixture of isomers) [Example 63]
5 | 0.052 µM | C[C@@H]1CCN(C(=O)[C@@H]2NC(C34CC(N(Cc5ccc(Cl)c(F)c5)S(=O)(=O)c5ccccc5)(C3)C4)=NC2(C)C)C1 (mixture of isomers) [Example 64]
6 | 0.053 µM | CC1(C)N=C(C23CC(N(Cc4ccc(F)c(Cl)c4)S(=O)(=O)c4ccccc4)(C2)C3)N[C@H]1C(=O)NCCC(F)(F)F (mixture of isomers) [Example 65]
7 | 0.053 µM | CC1(C)N=C(C23CC(N(Cc4ccc(Cl)cc4)S(=O)(=O)c4ccc(Cl)cc4)(C2)C3)N[C@H]1C(=O)NCCC(F)(F)F (mixture of isomers) [Example 66]
8 | 0.053 µM | CC1(C)N=C(C23CC(N(Cc4ccc(Cl)cc4)S(=O)(=O)CCC4CC4)(C2)C3)N[C@H]1C(=O)NCCC(F)(F)F (mixture of isomers) [Example 67]
9 | 0.055 µM | CC1(C)N=C(C23CC(N(Cc4ccc(Cl)c(F)c4)S(=O)(=O)c4ccccc4)(C2)C3)N[C@H]1C(=O)NC1CC1 (mixture of isomers) [Example 68]
10 | 0.055 µM | CN(CC1CC1(F)F)C(=O)[C@@H]1NC(C23CC(N(Cc4ccc(Cl)c(F)c4)S(=O)(=O)c4ccccc4)(C2)C3)=NC1(C)C (mixture of isomers) [Example 69]
11 | 0.056 µM | CC1(C)N=C(C23CC(N(Cc4ccc(Cl)cc4)S(=O)(=O)c4cccc(C#N)c4)(C2)C3)N[C@H]1C(=O)NCCC(F)(F)F (mixture of isomers) [Example 70]
12 | 0.057 µM | CC1(C)N=C(C23CC(N(Cc4ccc(Cl)c(F)c4)S(=O)(=O)c4ccccc4)(C2)C3)N[C@H]1C(=O)N1CCCC12CCC2 (mixture of isomers) [Example 71]
13 | 0.057 µM | CC1(C)N=C(C23CC(N(Cc4ccc(Cl)c(Cl)c4)S(=O)(=O)CCC(F)F)(C2)C3)N[C@H]1C(=O)NC12CC(C1)C2 (mixture of isomers) [Example 72]
14 | 0.058 µM | C[C@H](NC(=O)[C@@H]1NC(C23CC(N(Cc4ccc(Cl)c(F)c4)S(=O)(=O)c4ccccc4)(C2)C3)=NC1(C)C)C(F)(F)F (mixture of isomers) [Example 73]
15 | 0.058 µM | CC(F)(F)CCS(=O)(=O)N(Cc1ccc(Cl)c(Cl)c1)C12CC(C3=NC(C)(C)[C@H](C(=O)NC45CC(C4)C5)N3)(C1)C2 (mixture of isomers) [Example 74]
16 | 0.059 µM | CC1(C)N=C(C23CC(N(Cc4ccc(Cl)c(F)c4)S(=O)(=O)c4ccccc4)(C2)C3)N[C@H]1C(=O)NC1CC1C(F)(F)F (mixture of isomers) [Example 75]
17 | 0.06 µM | CC1(C)N=C(C23CC(N(Cc4ccc(Cl)cc4)S(=O)(=O)c4ccccc4)(C2)C3)N[C@H]1C(=O)N1CCC(F)(F)CC1 (mixture of isomers) [Example 76]
18 | 0.06 µM | CN(C(=O)[C@@H]1NC(C23CC(N(Cc4ccc(Cl)c(F)c4)S(=O)(=O)c4ccccc4)(C2)C3)=NC1(C)C)C1CC(C(F)F)C1 (mixture of isomers) [Example 78]
19 | 0.06 µM | CC1(C)N=C(C23CC(N(Cc4ccc(Cl)c(F)c4)S(=O)(=O)c4ccccc4)(C2)C3)N[C@H]1C(=O)NCCC(F)F (mixture of isomers) [Example 79]

Row | IC50 | SMILES
20 | 0.061 µM | CCCCCS(=O)(=O)N(Cc1ccc(Cl)cc1)C12CC(C3=NC(C)(C)[C@H](C(=O)NCCC(F)(F)F)N3)(C1)C2 (mixture of isomers) [Example 80]
21 | 0.061 µM | CC1(C)N=C(C23CC(N(Cc4ccc(Cl)c(F)c4)S(=O)(=O)c4ccccc4)(C2)C3)N[C@H]1C(=O)N1CC2CC2C1 (mixture of isomers) [Example 81]
22 | 0.061 µM | CC1(C)N=C(C23CC(N(Cc4ccc(Cl)c(F)c4)S(=O)(=O)c4ccccc4)(C2)C3)N[C@H]1C(=O)N1CC2CC(F)(F)CC2C1 (mixture of isomers) [Example 82]
23 | 0.061 µM | CN(C[C@H]1CC1(F)F)C(=O)[C@@H]1NC(C23CC(N(Cc4ccc(Cl)c(F)c4)S(=O)(=O)c4ccccc4)(C2)C3)=NC1(C)C (mixture of isomers) [Example 83]
24 | 0.061 µM | CC1(C)N=C(C23CC(N(Cc4ccc(Cl)c(F)c4)S(=O)(=O)c4ccccc4)(C2)C3)N[C@H]1C(=O)NC1CC(C(F)F)C1 (mixture of isomers) [Example 84]
25 | 0.062 µM | C[C@H]1CCN(C(=O)[C@@H]2NC(C34CC(N(Cc5ccc(Cl)c(F)c5)S(=O)(=O)c5ccccc5)(C3)C4)=NC2(C)C)C1 (mixture of isomers) [Example 85]
26 | 0.062 µM | CC1(C)N=C(C23CC(N(Cc4ccc(Cl)c(Cl)c4)S(=O)(=O)c4ccccc4)(C2)C3)N[C@H]1C(=O)N1CCC(F)(F)CC1 (mixture of isomers) [Example 86]
27 | 0.063 µM | CC1(C)N=C(C23CC(N(Cc4ccc(Cl)c(F)c4)S(=O)(=O)c4ccccc4)(C2)C3)N[C@H]1C(=O)N1CC2(CCC2)C1 (mixture of isomers) [Example 87]
28 | 0.063 µM | CC1(C)N=C(C23CC(N(Cc4ccc(Cl)c(F)c4)S(=O)(=O)c4ccccc4)(C2)C3)N[C@H]1C(=O)N1CC2CCC(C1)C2(F)F (mixture of isomers) [Example 88]
29 | 0.063 µM | CC1(C)N=C(C23CC(N(Cc4ccc(Cl)c(F)c4)S(=O)(=O)c4ccccc4)(C2)C3)N[C@H]1C(=O)NC1CC(C(F)F)C1 (mixture of isomers) [Example 89]
30 | 0.064 µM | CC1(C)N=C(C23CC(N(Cc4ccc(Cl)cc4)S(=O)(=O)c4ccn(C5CC5)n4)(C2)C3)N[C@H]1C(=O)NCCC(F)(F)F (mixture of isomers) [Example 90]
31 | 0.064 µM | CC1(C)N=C(C23CC(N(Cc4ccc(Cl)c(F)c4)S(=O)(=O)c4ccccc4)(C2)C3)N[C@H]1C(=O)N1CCC(F)(F)C1 (mixture of isomers) [Example 91]
32 | 0.064 µM | CC1(C)N=C(C23CC(N(Cc4ccc(Cl)cc4)S(=O)(=O)CCCF)(C2)C3)N[C@H]1C(=O)NCCC(F)(F)F (mixture of isomers) [Example 92]
33 | 0.064 µM | CC(F)(F)CCS(=O)(=O)N(Cc1ccc(Cl)cc1)C12CC(C3=NC(C)(C)[C@H](C(=O)NCCC(F)(F)F)N3)(C1)C2 (mixture of isomers) [Example 93]
34 | 0.064 µM | CC1(C)N=C(C23CC(N(Cc4ccc(Cl)c(F)c4)S(=O)(=O)c4ccccc4)(C2)C3)N[C@H]1C(=O)N1CCC12CC(F)(F)C2 (mixture of isomers) [Example 94]
35 | 0.064 µM | CN(CC(C)(C)F)C(=O)[C@@H]1NC(C23CC(N(Cc4ccc(Cl)c(F)c4)S(=O)(=O)c4ccccc4)(C2)C3)=NC1(C)C (mixture of isomers) [Example 95]
36 | 0.065 µM | CCCS(=O)(=O)N(Cc1ccc(Cl)c(Cl)c1)C12CC(C3=NC(C)(C)[C@H](C(=O)N4CCC(F)(F)CC4)N3)(C1)C2 (mixture of isomers) [Example 96]
37 | 0.066 µM | CC1(C)N=C(C23CC(N(Cc4ccc(Cl)c(F)c4)S(=O)(=O)c4ccccc4)(C2)C3)N[C@H]1C(=O)N1CCCC(F)(F)C1 (mixture of isomers) [Example 98]
38 | 0.067 µM | CC1(C)N=C(C23CC(N(Cc4ccc(Cl)cc4)S(=O)(=O)c4ccccc4C#N)(C2)C3)N[C@H]1C(=O)NCCC(F)(F)F (mixture of isomers) [Example 99]

Row | SMILES | IC50
39 | CC1(C)N=C(C23CC(N(Cc4ccc(Cl)c(F)c4)S(=O)(=O)c4ccccc4)(C2)C3)N[C@H]1C(=O)N1C2CCC1CC(F)(F)C2 (mixture of isomers) [Example 77] | 0.06 µM
